Publication PMC11881437 (Molecular Medicine, 2025)
Read-outs that look alike come from different tables or passages of the source.

Experiments:
[1] = system: HCT116 cells; test: Annexin V/PI flow cytometry (apoptosis); format: cell-based, human; details: HCT116, 48 h, IC50 doses; untreated 7.9%
Procedure: Percentage of apoptotic cells were detected by Annexin V and propidium Iodide (PI) staining by flow cytometry analysis according to the protocols provided by manufacturer of the kit (Invitrogen, USA). In brief, cells were washed with PBS, suspended in binding buffer followed by incubation with Annexin V and PI. Then, the cells were analysed by using a flow cytometer (BD LSRFortessaTM X-20).

[2] = system: CD44+/CD133+ CSC population in CES derived from HCT116 cells; test: Flow cytometry of CD44+/CD133+ cells in tumorospheres; format: cell-based, human; details: 24 h, 26 µM Orientin, 13 µM 5FU, 14 µM Orientin + 7 µM 5FU, untreated 18.4%
Procedure: (§1) HCT116 CRC cells were grown in ultra-low attachment plate in 3dGRO™ Spheroid Medium (Sigma-Aldrich, USA) for 7 days. Spheroids enriched with CSCs were considered as CSC enriched spheres (CESs) or commonly referred as tumorospheres. After 7 days, tumorospheres were subjected to different treatments for 24 h, as per experimental protocol. Media of tumorospheres of all the treatment groups were collected, centrifuged to remove the cell debris and suspended spheres, supernatants were collected and vacuum concentrated. These supernatants were referred as conditioned medium (CM) and were stored at − 20 °C until use.
Percentages of CD44^+/CD133^+ cell population were determined within tumorospheres and HIF1α positive cells were determined within the CD44^+/CD133^+ cell population using a flow cytometer (BD LSRFortessa™ X-20) and analyzed by BD FACSDiva™ software.

[3] = system: HUVEC; test: Sprout (tube) formation assay with conditioned medium of CES; format: cell-based, human; details: for sprout formation: numbers and length of tubes: HUVEC, 24 h with CM of treated CES
Procedure: as §1
Matrigel was thawed overnight and the plate was coated with Matrigel (BD Bioscience, USA) and incubated for 1 h for polymerization. HUVECs (1 × 10^4) were seeded onto the Matrigel coated plate. After 8 h, media were changed with CM of interest. After 24 h of treatment tube formation was visualized microscopically and photographs were captured (DM 1000, Leica, Germany). The tube numbers were quantified by counting the branches between two discrete endothelial cells and length of the tubes were measured using Image J software by drawing a line along each tube and measuring the length in micrometer.

[4] = system: CSC enriched spheres (CES) derived from HCT116 cells; test: Tumorosphere (CES) diameter and number; format: cell-based, human; details: 24 h, 5FU vs control, Orientin and combination vs 5FU
Procedure: as §1

[5] = system: OCT4, SOX2 and NANOG; test: Real time PCR of stemness factors in sorted CD44+/CD133+ cells; format: cell-based, human; details: 24 h
From the text: CD44^+/CD133^+ cells were isolated using MACS LS column (Miltenyi Biotec, USA) after leveled with CD44 and CD133 antibody conjugated with microbeads (Miltenyi Biotec, USA) by following manufacture’s protocol and subjected to further analysis. Cells expressing both CD44 and CD133 were isolated using magnetic cell sorter (MACS) (Guerriero et al. [2017]).
Total RNA was extracted from sorted CD44^+/CD133^+ cell population using TRIZOL (Thermo Fisher Scientific, USA) as described in manufacturer’s protocol. cDNAs were synthesized from RNA templates by using cDNA isolation kit (Bio-Rad, USA) and target genes like OCT4, SOX2 and NANOG were amplified by using real time PCR kit (Bio-Rad, USA) following manufacturer’s instructions by Roche LightCycler® 96 System (Switzerland). Glyceraldehyde-3-phosphate dehydrogenase (GAPDH) gene expression was used to normalize the expression of the target genes.

[6] = system: HCT116 cells; test: Atomic force microscopy of cell morphology; format: cell-based, human; details: HCT116, 24 h; 26 µM Orientin, 13 µM 5FU, 14 µM Orientin + 7 µM 5FU
Procedure: The material properties and dimensions of the probe used in contact mode were as follows: resonance frequency of 13 kHz (± 4 kHz), force constant of 0.2 N/m (± 0.14 N/m), cantilever length of 450 µm (± 10 µm), cantilever width of 38 µm (± 5 µm), cantilever thickness of 2 µm (± 1 µm), tip radius of 5 nm (± 1 nm), and tip height of 17 µm (± 2 µm). The scan area depends on the size of the cancer cell and ranged from 20 × 10–30 × 20 µm^2. Image processing and data analysis were performed using Picoview 1.10 software.

[7] = Serum cytotoxicity markers (ALT, AST, ALP, BUN, creatinine); format: in vivo; details: BALB/c mice, 10 days, mean ± SD, n = 6
Procedure: To determine the toxicity of only Orientin treatment in various doses, the mice were divided into five groups. Each group contained six animals (n = 6). Each animal of the vehicle control group (VC) was left untreated, while, mice of other four groups were administered Orientin intravenously with 1 mg/kg b.w, 3 mg/kg b.w, 5 mg/kg b.w and 10 mg/kg b.w dosage respectively for 28 days. […] All the treatments were continued for 10 days. On day 11 all the mice were sacrificed and different parameters were studied.
Blood samples were collected from the retro-orbital venous plexus of mice for quantitative analysis of alanine aminotransferase (ALT), aspartate aminotransferase (AST), alkaline phosphatase (ALP), creatinine and blood urea nitrogen (BUN) in serum following kit protocol (Sigma Aldrich, USA). Optical densities were determined by using a spectrophotometer (Infinite® 200 PRO, TECAN, Switzerland).

[8] = system: HCT116 cells; test: MTT cell viability assay; format: cell-based, human; details: for IC50: Homo sapiens
Procedure: HCT116 cells (1 × 10^3 cells/well) were seeded in 96-well plates and cell viability was determined using MTT (Sigma-Aldrich, USA). […] MTT (0.5 mg/ml) was added to the cells after 48 h of treatment and incubated for 3 h in dark at 37 °C. The generated formazan complexes were dissolved in DMSO and the absorbance were measured at 550 nm using a spectrophotometer (Infinite® 200 PRO, TECAN, Switzerland) (Bhowmik et al. [2013]).

[9] = system: CSC enriched spheres (CES) derived from HCT116 cells; test: Cellular ROS, NO and LPO level in CES; format: cell-based, human; details: 24 h, 26 µM Orientin, 13 µM 5FU, 14 µM Orientin + 7 µM 5FU
Procedure: Reactive oxygen species (ROS) level in the cells of treated and untreated CESs was measured by 2′,7′-dichlorofluorescein diacetate (DCFH-DA) standard protocol (Bhattacharjee et al. [2014]). The production of nitric oxide (NO) were estimated by the level of stable NO metabolites, viz., nitrate (NO3^–) and nitrite (NO2^–) ions by reaction with Griess reagent (Bryan and Grisham [2007]). […]

For `O=c1[nH]cc(F)c(=O)[nH]1` [5FU, 5-Fluorouracil, reference compound], the “percentage of apoptotic cells” value [1] was 54.5%, the “CD44+/CD133+ cell population” value [2] was 22.3% and the “sprout formation: numbers and length of tubes” value [3] was “instigated sprout formations by increasing the numbers and length of tubes”. The diameter of spheres [4] was “significantly increased”, the number of spheres [4] was “significantly increased” and the “mRNA level of stemness maintenance factors (OCT4, NANOG, SOX2)” value [5] was “increased”. The “cell morphology by AFM” value [6] was “cell shrinkage, distortion, nuclear condensation and fragmentation, membrane blebbing and morphological changes of cellular bodies”, the ALP [7] was 168.44 ± 4.09 U/ml and the ALT [7] was 121.70 ± 3.95 U/ml. It also gave an AST [7] of 219.16 ± 2.83 U/ml, a BUN [7] of 30.76 ± 0.46 mg/dL and a Creatinine [7] of 0.73 ± 0.023 mg/dL. The “reduction of IC50 in combination compared to individual treatment” value ([8]; HCT116, MTT, 48 h) was “approximately 50%”, the IC50 ([8]; HCT-116, HCT116, MTT, 48 h, used separately, read-out: IC50) was 13 µM and the “ROS, NO and LPO production in tumorospheres” value [9] was “increased”.

With `O=c1cc(-c2ccc(O)c(O)c2)oc2c([C@@H]3O[C@H](CO)[C@@H](O)[C@H](O)[C@H]3O)c(O)cc(O)c12` [Orientin] the “percentage of apoptotic cells” value [1] was 49.3%, the “CD44+/CD133+ cell population” value [2] was 13.5% and the “number of sprouting and length of tubes, comparison with VEGFA neutralizing antibody” value ([3]; HUVEC with CM of treated CES, 5 µg/ml VEGFA neutralizing antibody, 26 µM Orientin) was “same level of inhibition”. The “sprout formation: numbers and length of tubes” value [3] was “remarkably reduced”, the diameter of spheres [4] was “significant decreases” and the number of spheres [4] was “significant decreases”. For the same compound, the “mRNA level of stemness maintenance factors (OCT4, NANOG, SOX2)” value [5] was “decreased”, the “cell morphology by AFM” value [6] was “cell shrinkage, distortion, nuclear condensation and fragmentation, membrane blebbing and morphological changes of cellular bodies” and the ALP [7] was 94.23 ± 2.10 U/ml. It also gave an ALT [7] of 49.08 ± 1.99 U/ml, an AST [7] of 134.7 ± 2.00 U/ml and a BUN [7] of 21.48 ± 0.53 mg/dL. For the same compound, the Creatinine [7] was 0.49 ± 0.020 mg/dL, the “reduction of IC50 in combination compared to individual treatment” value ([8]; HCT116, MTT, 48 h) was “approximately 50%” and the IC50 ([8]; HCT-116, 48 h) was 26 µM. The “ROS, NO and LPO production in tumorospheres” value [9] was “decrease”.
